Several values for one entry are separate records, joined by “and”; a condition that tells them apart may be missing. Identical values can stand only once.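 Growth conditions: 96-well plates. Treatment: test compound, 48 hours, 5 concentrations. Analysis: linear interpolation between bracketing concentrations; unreached endpoints set to highest concentration. GI50: concentration for 50% inhibition of growth.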 Activity calls are given as the source filed them. Cut-off read from the data, not from the text of the source: active = GI50 up to about 1.1 µM and inactive = higher.
Columns and labels:
Assay in all cases: inhibition of tumour cell growth, NCI panel, 48 h
[1] = test system: BT-549
[2] = test system: U-251
[3] = test system: Malme-3M
[4] = test system: NCI/ADR-RES
[5] = test system: SK-MEL-5
[6] = test system: OVCAR-4
[7] = test system: T47D
[8] = test system: SK-MEL-2
[9] = test system: OVCAR-8
[10] = test system: CCRF-CEM
[11] = test system: A498
[12] = test system: HCT-15
[13] = test system: NCI-H522
[14] = test system: SF-539
[15] = test system: SK-OV-3
[16] = test system: NCI-H23
[17] = test system: HCT-116
[18] = test system: CAKI-1
[19] = test system: HOP-92
[20] = test system: SNB-75

SMILES | GI50 [1] | GI50 [2] | GI50 [3] | GI50 [4] | GI50 [5] | GI50 [6] | GI50 [7] | GI50 [8] | GI50 [9] | GI50 [10] | GI50 [11] | GI50 [12] | GI50 [13] | GI50 [14] | GI50 [15] | GI50 [16] | GI50 [17] | GI50 [18] | GI50 [19] | GI50 [20]
Clc1cc2c(cc1Cl)CC(NCCN1CCCC1)CC2 (centres undefined) | 15 µM (inactive) | 15.9 µM (inactive) | 10.8 µM (inactive) | 13.7 µM (inactive) | 3.74 µM (inactive) | 17.2 µM (inactive) | 10.4 µM (inactive) | 17.8 µM (inactive) | 16.7 µM (inactive) | 26.4 µM (inactive) | 13.7 µM (inactive) | 12.9 µM | 17.1 µM (inactive) | 13.6 µM (inactive) | 17.7 µM (inactive) | 16 µM (inactive) | 12.9 µM (inactive) | 15.7 µM (inactive) |  | 
COC(=O)C1OC(O[C@H]2CC[C@]3(C)[C@H]4CC=C5[C@@H]6CC(C)(C)CC[C@]6(C(=O)OC6OCC(O)C(O)C6OC6OC(C)C(OC7OCC(O)C(O)C7O)C(O)C6O)CC[C@@]5(C)[C@]4(C)CC[C@H]3C2(C)C)C(O)C(O)C1O (some centres undefined) | 18.7 µM (inactive) and 19.9 µM (inactive) | 18.4 µM (inactive) and 18.7 µM (inactive) | 15.5 µM (inactive) and 18.4 µM (inactive) |  | 17.9 µM (inactive) and 17.8 µM (inactive) | 15.8 µM (inactive) and 12.7 µM (inactive) | 28.2 µM (inactive) and 18.2 µM (inactive) | 19.7 µM (inactive) and 17.6 µM (inactive) | 21.4 µM (inactive) and 15.2 µM (inactive) | 22.6 µM (inactive) and 22.4 µM (inactive) |  | 26.9 µM and 28.8 µM | 16.1 µM (inactive) and 16.4 µM (inactive) |  | 21.2 µM (inactive) and 21.3 µM (inactive) | 15.4 µM (inactive) and 15.8 µM (inactive) | 17.1 µM (inactive) and 18.4 µM (inactive) | 12.9 µM (inactive) and 15.5 µM (inactive) | 16.4 µM (inactive) and 19.9 µM (inactive) | 16.5 µM (inactive) and 16.1 µM (inactive)
COC1CCN(N(C)C)O1 (centres undefined) | > 100 µM (inactive) | > 100 µM (inactive) | > 100 µM (inactive) | > 100 µM (inactive) | > 100 µM (inactive) | > 100 µM (inactive) | > 100 µM (inactive) | > 100 µM (inactive) | > 100 µM (inactive) | > 100 µM (inactive) | > 100 µM (inactive) | > 100 µM | > 100 µM (inactive) |  |  | > 100 µM (inactive) | > 100 µM (inactive) | > 100 µM (inactive) |  | > 100 µM (inactive)
COc1ccc(/C=C2\CCC(C)(CN(C)C)C2=O)cc1Br (centres undefined) | 16 µM (inactive) | 21.8 µM (inactive) | 25.8 µM (inactive) | 22.3 µM (inactive) | 14.8 µM (inactive) | 18.9 µM (inactive) |  | 18.7 µM (inactive) | 17 µM (inactive) | 37.5 µM (inactive) | 22.4 µM (inactive) | 16.9 µM | 17 µM (inactive) | 21.5 µM (inactive) | 30.1 µM (inactive) | 28.8 µM (inactive) | 17.2 µM (inactive) | 32.7 µM (inactive) | 29.9 µM (inactive) | 25.6 µM (inactive)
COC(=O)C1Cc2c([nH]c3ccccc23)-c2[nH]c3ccccc3c2CC(NC(C)=O)C(=O)N2CCCC2C(=O)N1 (centres undefined) |  | > 100 µM (inactive) |  | > 100 µM (inactive) | > 100 µM (inactive) | > 100 µM (inactive) | > 100 µM (inactive) | > 100 µM (inactive) | > 100 µM (inactive) | 93.5 µM (inactive) |  | > 100 µM | 36.1 µM (inactive) | > 100 µM (inactive) | > 100 µM (inactive) | > 100 µM (inactive) | > 100 µM (inactive) | > 100 µM (inactive) |  | > 100 µM (inactive)
Nc1nc(N)c2ncn(-c3ccc(Cl)cc3)c2n1 |  | 49.1 µM (inactive) | 28.4 µM (inactive) | 33.7 µM (inactive) | 23.6 µM (inactive) | 80.5 µM (inactive) | 25.5 µM (inactive) | 39.6 µM (inactive) | 30.1 µM (inactive) | 20.9 µM (inactive) | 21.8 µM (inactive) | 24.8 µM | 28.6 µM (inactive) | 27.4 µM (inactive) | 20.5 µM (inactive) | 61 µM (inactive) | 37.9 µM (inactive) | 20.4 µM (inactive) | 24.8 µM (inactive) | 10.1 µM (inactive)
O=C(C1=CCC2(CC1)OCCO2)N(Cc1ccccc1)c1ccccc1I |  | 19.9 µM (inactive) |  | 15 µM (inactive) | 13.9 µM (inactive) | 14.9 µM (inactive) | 18.4 µM (inactive) | 21.2 µM (inactive) | 16.4 µM (inactive) |  | 22.5 µM (inactive) | 23 µM |  |  | 32.1 µM (inactive) | 19.7 µM (inactive) | 14.8 µM (inactive) | 24.5 µM (inactive) | 16.1 µM (inactive) | 14.1 µM (inactive)
CCC12CN(C(=O)OC)C3C(Br)C1CCC(=O)C32 (centres undefined) |  | > 100 µM (inactive) | > 100 µM (inactive) | > 100 µM (inactive) | > 100 µM (inactive) | > 100 µM (inactive) | > 100 µM (inactive) | > 100 µM (inactive) | > 100 µM (inactive) | > 100 µM (inactive) | > 100 µM (inactive) | > 100 µM | 84.1 µM (inactive) | > 100 µM (inactive) | > 100 µM (inactive) | > 100 µM (inactive) |  | > 100 µM (inactive) | > 100 µM (inactive) | > 100 µM (inactive)

From ChEMBL document CHEMBL1201862, “PubChem BioAssay data set” (2004)
